Results reported in patent US20050197338A1, “Substituted pyrazole urea compounds for the treatment of inflammation” (priority 2003, published 2005).

Target: T1, human IKK-2 (rhIKK-2 homodimer) (Homo sapiens, UniProt O14920)
T1 construct: FLAG (DYKDDDDKD) (C); made in house; host or cells: insect cells (baculovirus, pFastBac)
T1 sequence (O14920 1-756): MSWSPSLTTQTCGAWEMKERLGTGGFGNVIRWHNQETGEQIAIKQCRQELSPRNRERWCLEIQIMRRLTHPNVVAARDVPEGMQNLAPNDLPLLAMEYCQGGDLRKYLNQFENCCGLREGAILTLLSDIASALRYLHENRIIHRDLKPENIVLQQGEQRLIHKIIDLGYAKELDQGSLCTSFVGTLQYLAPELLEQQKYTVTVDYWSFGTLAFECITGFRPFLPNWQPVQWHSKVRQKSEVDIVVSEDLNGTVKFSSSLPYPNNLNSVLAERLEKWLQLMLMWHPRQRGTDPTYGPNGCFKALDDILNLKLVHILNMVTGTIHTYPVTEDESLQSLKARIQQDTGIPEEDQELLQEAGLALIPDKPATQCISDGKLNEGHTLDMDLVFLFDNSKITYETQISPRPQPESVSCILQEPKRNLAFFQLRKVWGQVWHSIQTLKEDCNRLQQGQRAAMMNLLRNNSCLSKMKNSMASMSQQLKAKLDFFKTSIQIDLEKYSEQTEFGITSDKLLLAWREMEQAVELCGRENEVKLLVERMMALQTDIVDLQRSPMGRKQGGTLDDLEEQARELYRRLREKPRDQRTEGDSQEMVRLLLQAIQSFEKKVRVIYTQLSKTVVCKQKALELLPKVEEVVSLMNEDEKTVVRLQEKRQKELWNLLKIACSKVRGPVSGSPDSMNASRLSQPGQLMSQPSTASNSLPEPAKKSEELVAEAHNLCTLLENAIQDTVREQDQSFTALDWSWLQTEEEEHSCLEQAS
Test: IKK-2 Resin Enzyme Assay (Human IKK-2 Enzyme Assay)
Type: biochemical
Conditions: human IKK-2, resin enzyme assay; read-out: IC50 (μM) hIKK-2
Method in brief: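 C-terminally FLAG-tagged human IKK-2 homodimer, baculovirus-expressed in insect cells and anti-FLAG purified. Reaction mix: 5 μM biotinylated IκBα peptide (Ser32/Ser36 region), 1 μM ATP with [γ-33P]ATP, 2 mM MgCl2, 2 mM MnCl2, 10 mM NaF, 1 mM DTT, 25 mM HEPES pH 7.6. Incubated 30 min at 25 °C; IC50 derived.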

| IC50 | Structure (SMILES) |
| --- | --- |
| 3.75 µM | NC(=O)Nc1cn(-c2ccc([S+]([O-])c3ccccc3F)cc2)nc1C(N)=O (stereo not drawn) [Example 193, 1-(1-(4-(2-fluorophenylsulfinyl)phenyl)-3-carbamoyl-1H-pyrazol-4-yl)urea] |
| 0.718 µM | NC(=O)Nc1cn(-c2ccc(Sc3ccc(F)cc3)cc2)nc1C(N)=O [Example 196, 1-(1-(4-(4-fluorophenylthio)phenyl)-3-carbamoyl-1H-pyrazol-4-yl)urea] |
| 0.561 µM | NC(=O)Nc1cn(-c2ccc(Sc3cccc(F)c3)cc2)nc1C(N)=O [Example 197, 1-(1-(4-(3-fluorophenylthio)phenyl)-3-carbamoyl-1H-pyrazol-4-yl)urea] |
| 0.326 µM | NC(=O)Nc1cn(-c2ccc([S+]([O-])c3ccc(F)cc3)cc2)nc1C(N)=O (stereo not drawn) [Example 200, 1-(1-(4-(4-fluorophenylsulfinyl)phenyl)-3-carbamoyl-1H-pyrazol-4-yl)urea] |
| 0.532 µM | NC(=O)Nc1cn(-c2ccc([S+]([O-])c3cccc(F)c3)cc2)nc1C(N)=O (stereo not drawn) [Example 201, 1-(1-(4-(3-fluorophenylsulfinyl)phenyl)-3-carbamoyl-1H-pyrazol-4-yl)urea] |
| 0.153 µM | NC(=O)Nc1cn(-c2ccc(S(=O)(=O)c3cccc(F)c3)cc2)nc1C(N)=O [Example 203, 1-(1-(4-(3-fluorophenylsulfonyl)phenyl)-3-carbamoyl-1H-pyrazol-4-yl)urea] |

The remaining lines, values behind:

| Structure (SMILES) | IC50 |
| --- | --- |
| NC(=O)Nc1cn(-c2ccc(-c3ccc(C(N)=O)c(F)c3)cc2)nc1C(N)=O [Example 183, 4-[(aminocarbonyl)amino]-1-[4′-(aminocarbonyl)-3′-fluoro-1,1′-biphenyl-4-yl]-1H-pyrazole-3-carboxamide] | 0.13 µM |
| COC(=O)c1ccc(-n2cc(NC(N)=O)c(C(N)=O)n2)cc1 [Example 184, methyl 4-{3-(aminocarbonyl)-4-[(aminocarbonyl)amino]-1H-pyrazol-1-yl}benzoate] | 5.49 µM |
| COC(=O)c1cccc(-n2cc(NC(N)=O)c(C(N)=O)n2)c1 [Example 185, methyl 3-{3-(aminocarbonyl)-4-[(aminocarbonyl)amino]-1H-pyrazol-1-yl}benzoate] | 5.88 µM |
| NC(=O)Nc1cn(-c2ccc(Cl)c(Cl)c2)nc1C(N)=O [Example 188, 4-[(aminocarbonyl)amino]-1-(3,4-dichlorophenyl)-1H-pyrazole-3-carboxamide] | 0.46 µM |
| NC(=O)Nc1cn(-c2ccc(SC3CCCCC3)cc2)nc1C(N)=O [Example 189, 1-(3-carbamoyl-1-(4-(cyclohexylthio)phenyl)-1H-pyrazol-4-yl)urea] | 1.04 µM |
| NC(=O)Nc1cn(-c2ccc(Sc3ccccc3F)cc2)nc1C(N)=O [Example 190, 1-(1-(4-(2-fluorophenylthio)phenyl)-3-carbamoyl-1H-pyrazol-4-yl)urea] | 0.831 µM |
| NC(=O)Nc1cn(-c2ccc([S+]([O-])C3CCCCC3)cc2)nc1C(N)=O (stereo not drawn) [Example 191, 1-(3-carbamoyl-1-(4-(cyclohexylsulfinyl)phenyl)-1H-pyrazol-4-yl)urea] | 2.54 µM |
| NC(=O)Nc1cn(-c2cccc(I)c2)nc1C(N)=O [Example 195, 1-(3-carbamoyl-1-(3-iodophenyl)-1H-pyrazol-4-yl)urea] | 0.387 µM |
| NC(=O)Nc1cn(-c2cccc(Sc3ccccc3F)c2)nc1C(N)=O [Example 198, 1-(1-(3-(2-fluorophenylthio)phenyl)-3-carbamoyl-1H-pyrazol-4-yl)urea] | 6.52 µM |
| NC(=O)Nc1cn(-c2ccc(Sc3ccc(O)cc3)cc2)nc1C(N)=O [Example 199, 1-(1-(4-(4-hydroxyphenylthio)phenyl)-3-carbamoyl-1H-pyrazol-4-yl)urea] | 6.56 µM |
| NC(=O)Nc1cn(-c2cccc([S+]([O-])c3ccccc3F)c2)nc1C(N)=O (stereo not drawn) [Example 202, 1-(1-(3-(2-fluorophenylsulfinyl)phenyl)-3-carbamoyl-1H-pyrazol-4-yl)urea] | 5.97 µM |
| NC(=O)Nc1cn(-c2ccc(Sc3ccncc3)cc2)nc1C(N)=O [Example 206, 1-(3-carbamoyl-1-(4-(pyridin-4-ylthio)phenyl)-1H-pyrazol-4-yl)urea] | 0.0514 µM |
